Data: US9957247B2, “SecA inhibitors and methods of making and using thereof” (Georgia State University Research Foundation, Inc., priority 2012, dated 2018)
Converted amounts (≈) assume the structure as drawn. Where two headings read alike, the source gives them in different places.

Tests used:
MsSecA = MsSecA (Mycolicibacterium smegmatis, UniProt P71533); assay: SecA-liposomes ion-channel activity in oocytes, MsSecA; type: cell-based; conditions: Table 1
S. aureus Mu50 [1] = assay: Bactericidal effect, S. aureus Mu50; conditions: 9 μg/ml, 1 hour at 37° C., FIG. 5
S. aureus 6538 [2] = assay: Bacteriostatic effect, S. aureus 6538; conditions: Staphylococcus aureus, 6538, read-out: Bacteriostatic effect, MIC, S. aureus 6538
S. aureus Mu3 = assay: Bacteriostatic effect, S. aureus Mu3; conditions: Staphylococcus aureus, MU3, read-out: Bacteriostatic effect, MIC, S. aureus Mu3
BsSecA [3] = biological target: T1, BsSecA (Bacillus subtilis, UniProt P28366); assay: cell-based; parameters: species or system B. subtilis; conditions: IC50, Ion Channel activity, BsSecA, Table 1
T1 sequence (P28366 whole entry): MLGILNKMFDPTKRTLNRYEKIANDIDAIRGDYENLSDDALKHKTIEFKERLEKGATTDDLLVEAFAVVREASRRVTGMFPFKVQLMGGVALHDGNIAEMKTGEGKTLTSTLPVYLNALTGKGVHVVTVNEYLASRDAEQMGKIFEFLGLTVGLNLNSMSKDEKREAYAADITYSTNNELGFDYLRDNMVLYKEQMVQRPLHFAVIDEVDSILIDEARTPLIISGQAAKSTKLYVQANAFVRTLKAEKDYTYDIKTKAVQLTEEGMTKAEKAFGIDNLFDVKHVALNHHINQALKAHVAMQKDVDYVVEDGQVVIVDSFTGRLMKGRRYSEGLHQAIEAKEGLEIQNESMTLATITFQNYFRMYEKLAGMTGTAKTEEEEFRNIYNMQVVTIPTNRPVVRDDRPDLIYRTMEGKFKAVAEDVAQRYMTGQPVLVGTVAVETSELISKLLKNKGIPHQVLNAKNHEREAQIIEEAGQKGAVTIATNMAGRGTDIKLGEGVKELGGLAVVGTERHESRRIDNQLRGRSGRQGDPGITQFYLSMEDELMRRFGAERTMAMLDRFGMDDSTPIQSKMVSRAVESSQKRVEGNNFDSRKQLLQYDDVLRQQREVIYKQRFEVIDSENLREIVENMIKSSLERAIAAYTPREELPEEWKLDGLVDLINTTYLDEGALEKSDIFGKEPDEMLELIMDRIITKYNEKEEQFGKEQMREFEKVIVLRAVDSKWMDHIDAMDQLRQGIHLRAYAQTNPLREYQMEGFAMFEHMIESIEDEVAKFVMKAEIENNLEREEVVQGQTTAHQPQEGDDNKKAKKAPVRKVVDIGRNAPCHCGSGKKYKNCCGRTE

[4] = test system: S. aureus deletion strains (NorA−, MepA−) and strains (NorA++, MepA++) with over-expressed efflux pumps; assay: Antimicrobial effect with deletion or over expression of efflux pumps in S. aureus
S. aureus 6538 [5] = assay: Bactericidal effect, S. aureus 6538; conditions: 9 μg/ml, 1 hour at 37° C., FIG. 5
EcSecA [6] = biological target: T2, EcSecA (Escherichia coli, UniProt P10408); assay: biochemical; conditions: IC50, Translocation ATPase, Table 1
Target sequence in this assay (P0AG99 whole entry): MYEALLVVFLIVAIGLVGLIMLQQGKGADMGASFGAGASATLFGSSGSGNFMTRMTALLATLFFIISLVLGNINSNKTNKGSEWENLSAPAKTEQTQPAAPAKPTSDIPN
Target sequence in this assay (P10408 whole entry): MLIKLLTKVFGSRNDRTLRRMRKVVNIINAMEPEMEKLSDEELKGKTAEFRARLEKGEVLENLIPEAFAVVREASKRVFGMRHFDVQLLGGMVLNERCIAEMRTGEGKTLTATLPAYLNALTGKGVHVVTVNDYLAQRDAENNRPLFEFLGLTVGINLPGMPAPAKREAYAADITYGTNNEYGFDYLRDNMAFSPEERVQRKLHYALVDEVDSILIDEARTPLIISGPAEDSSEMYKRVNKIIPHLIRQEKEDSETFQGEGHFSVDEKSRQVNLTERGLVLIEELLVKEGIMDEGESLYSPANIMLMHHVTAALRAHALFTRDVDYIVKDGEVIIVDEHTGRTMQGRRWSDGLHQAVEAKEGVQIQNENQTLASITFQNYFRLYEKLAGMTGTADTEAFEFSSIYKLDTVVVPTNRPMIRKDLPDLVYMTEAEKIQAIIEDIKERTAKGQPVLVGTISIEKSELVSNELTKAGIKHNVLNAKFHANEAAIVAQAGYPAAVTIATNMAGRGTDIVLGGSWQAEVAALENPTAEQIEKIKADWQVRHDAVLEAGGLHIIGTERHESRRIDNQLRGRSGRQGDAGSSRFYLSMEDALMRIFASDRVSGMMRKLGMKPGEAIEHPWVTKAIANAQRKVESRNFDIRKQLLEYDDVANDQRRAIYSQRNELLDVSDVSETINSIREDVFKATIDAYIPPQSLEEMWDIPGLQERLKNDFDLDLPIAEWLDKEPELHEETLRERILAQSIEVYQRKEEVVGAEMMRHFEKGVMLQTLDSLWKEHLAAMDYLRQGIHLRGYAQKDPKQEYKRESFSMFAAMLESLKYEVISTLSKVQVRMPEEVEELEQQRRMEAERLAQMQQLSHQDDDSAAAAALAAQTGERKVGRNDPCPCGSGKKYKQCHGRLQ
Target sequence in this assay (P0AGA2 whole entry, further chain): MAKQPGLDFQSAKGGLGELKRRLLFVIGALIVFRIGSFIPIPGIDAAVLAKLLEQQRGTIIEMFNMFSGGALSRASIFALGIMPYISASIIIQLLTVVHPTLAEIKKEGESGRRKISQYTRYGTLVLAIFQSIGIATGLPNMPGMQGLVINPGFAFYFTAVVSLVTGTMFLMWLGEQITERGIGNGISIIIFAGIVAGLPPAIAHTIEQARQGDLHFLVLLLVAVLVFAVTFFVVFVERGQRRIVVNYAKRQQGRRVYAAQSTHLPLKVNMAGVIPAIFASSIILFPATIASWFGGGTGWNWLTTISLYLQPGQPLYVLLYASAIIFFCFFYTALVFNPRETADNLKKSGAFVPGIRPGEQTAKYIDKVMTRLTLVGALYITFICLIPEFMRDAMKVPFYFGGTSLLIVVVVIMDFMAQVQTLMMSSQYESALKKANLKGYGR
Target sequence in this assay (P0AG96 whole entry, further chain): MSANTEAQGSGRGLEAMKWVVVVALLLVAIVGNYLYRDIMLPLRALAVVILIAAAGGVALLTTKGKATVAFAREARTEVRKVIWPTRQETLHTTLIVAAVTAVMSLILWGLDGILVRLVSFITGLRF

BsSecA [7] = biological target: T1, BsSecA; assay: biochemical; type: biochemical, B. subtilis
EcSecA [8] = biological target: T2, EcSecA; assay: cell-based
Target sequence in this assay (P10408 whole entry): as the sequence (P10408 whole entry) above

B. anthracis Sterne = assay: microbe, parasite or virus in culture; type: cell-based; conditions: Bacillus anthracis, read-out: Bacteriostatic MIC95, B. anthracis Sterne
BaSecA1 = BaSecA1 (Bacillus anthracis, UniProt Q81X26); assay: cell-based; conditions: IC50, Ion Channel activity, BGaSecA 1
Chain of BaSecA1 (Q81X26 whole entry, looked up): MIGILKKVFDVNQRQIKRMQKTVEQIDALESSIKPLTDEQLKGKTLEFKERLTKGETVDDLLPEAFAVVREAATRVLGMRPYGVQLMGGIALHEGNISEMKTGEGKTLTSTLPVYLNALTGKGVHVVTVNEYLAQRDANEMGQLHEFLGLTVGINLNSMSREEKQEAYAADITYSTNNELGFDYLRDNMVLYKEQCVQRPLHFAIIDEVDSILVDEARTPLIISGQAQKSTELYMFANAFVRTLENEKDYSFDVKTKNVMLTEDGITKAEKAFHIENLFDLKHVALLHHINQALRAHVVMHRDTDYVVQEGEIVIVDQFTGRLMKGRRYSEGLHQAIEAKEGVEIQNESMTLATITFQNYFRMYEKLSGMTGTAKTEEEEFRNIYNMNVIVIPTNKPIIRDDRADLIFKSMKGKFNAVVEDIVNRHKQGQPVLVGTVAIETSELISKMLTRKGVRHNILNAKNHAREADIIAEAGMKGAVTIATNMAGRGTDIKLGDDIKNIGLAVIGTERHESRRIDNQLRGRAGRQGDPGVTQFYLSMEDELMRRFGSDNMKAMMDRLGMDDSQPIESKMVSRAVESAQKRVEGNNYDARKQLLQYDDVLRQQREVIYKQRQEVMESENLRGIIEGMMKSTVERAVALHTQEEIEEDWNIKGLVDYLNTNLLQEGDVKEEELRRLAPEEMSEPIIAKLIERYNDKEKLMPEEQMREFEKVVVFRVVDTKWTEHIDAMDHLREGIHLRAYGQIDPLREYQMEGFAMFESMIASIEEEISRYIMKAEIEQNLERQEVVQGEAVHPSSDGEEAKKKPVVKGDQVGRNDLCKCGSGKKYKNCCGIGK

BsSecA2 = conditions: read-out: IC50, Intrinsic ATPase, BsSecA2; Table 1
S. aureus 8325-4 = assay: Bacteriostatic effect, S. aureus 8325-4 (WT); conditions: Staphylococcus aureus, 83254, read-out: Bacteriostatic effect, MIC, WT 8325-4
SaSecA1 [9] = biological target: T3, SaSecA1 (Staphylococcus aureus, UniProt O06446); assay: cell-based
T3 sequence (O06446 1-843): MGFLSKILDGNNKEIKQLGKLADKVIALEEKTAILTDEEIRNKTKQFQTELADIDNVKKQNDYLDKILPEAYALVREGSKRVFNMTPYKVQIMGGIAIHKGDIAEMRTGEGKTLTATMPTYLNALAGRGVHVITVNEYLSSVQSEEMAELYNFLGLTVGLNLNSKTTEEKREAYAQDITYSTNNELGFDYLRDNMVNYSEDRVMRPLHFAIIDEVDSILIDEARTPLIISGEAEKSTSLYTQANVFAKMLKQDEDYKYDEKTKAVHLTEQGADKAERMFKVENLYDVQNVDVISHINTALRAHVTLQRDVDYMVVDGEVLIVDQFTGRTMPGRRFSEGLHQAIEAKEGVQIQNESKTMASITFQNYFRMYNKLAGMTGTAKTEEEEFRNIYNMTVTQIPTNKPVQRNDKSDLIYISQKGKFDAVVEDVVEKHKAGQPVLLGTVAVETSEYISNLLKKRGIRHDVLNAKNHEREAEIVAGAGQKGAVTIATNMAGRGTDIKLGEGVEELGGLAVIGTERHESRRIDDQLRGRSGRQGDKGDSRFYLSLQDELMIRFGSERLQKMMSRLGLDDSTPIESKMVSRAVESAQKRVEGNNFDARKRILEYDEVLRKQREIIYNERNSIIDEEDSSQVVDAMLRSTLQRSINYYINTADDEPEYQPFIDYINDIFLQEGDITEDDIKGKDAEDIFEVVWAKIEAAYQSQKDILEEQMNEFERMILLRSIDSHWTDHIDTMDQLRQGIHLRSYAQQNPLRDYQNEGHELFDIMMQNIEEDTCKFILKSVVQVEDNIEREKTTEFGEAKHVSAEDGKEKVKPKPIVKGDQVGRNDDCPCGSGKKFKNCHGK

S. pyogenes, MGAS5005 = assay: MIC95, S. pyogenes MGAS5005; type: cell-based; conditions: Streptococcus pyogenes, MGAS5005; read-out: MIC95, S. pyogenes MGAS5005
PaSecA = PaSecA (Pseudomonas aeruginosa, UniProt Q9LCT3); assay: cell-based; type: cell-based; conditions: IC50, Ion Channel activity, PASecA, Table 1
EcSecA [10] = biological target: T2, EcSecA; assay: biochemical; parameters: species or system E. coli; conditions: IC50, Intrinsic ATPase, Table 1, full-length EcSecA
Target sequence in this assay (P10408 whole entry): as the sequence (P10408 whole entry) above

S. aureus Mu50 [11] = assay: Bacteriostatic effect, S. aureus Mu50; conditions: for MIC: Staphylococcus aureus
SpSecA = SpSecA (Streptococcus pyogenes, UniProt Q99Y96); type: cell-based; conditions: read-out: IC50, Ion Channel activity, SpSecA
EcSecA N68 = EcSecA N68 (Escherichia coli, UniProt P10408); assay: biochemical; type: biochemical, E. coli
Chain of EcSecA N68 (P10408 1-610): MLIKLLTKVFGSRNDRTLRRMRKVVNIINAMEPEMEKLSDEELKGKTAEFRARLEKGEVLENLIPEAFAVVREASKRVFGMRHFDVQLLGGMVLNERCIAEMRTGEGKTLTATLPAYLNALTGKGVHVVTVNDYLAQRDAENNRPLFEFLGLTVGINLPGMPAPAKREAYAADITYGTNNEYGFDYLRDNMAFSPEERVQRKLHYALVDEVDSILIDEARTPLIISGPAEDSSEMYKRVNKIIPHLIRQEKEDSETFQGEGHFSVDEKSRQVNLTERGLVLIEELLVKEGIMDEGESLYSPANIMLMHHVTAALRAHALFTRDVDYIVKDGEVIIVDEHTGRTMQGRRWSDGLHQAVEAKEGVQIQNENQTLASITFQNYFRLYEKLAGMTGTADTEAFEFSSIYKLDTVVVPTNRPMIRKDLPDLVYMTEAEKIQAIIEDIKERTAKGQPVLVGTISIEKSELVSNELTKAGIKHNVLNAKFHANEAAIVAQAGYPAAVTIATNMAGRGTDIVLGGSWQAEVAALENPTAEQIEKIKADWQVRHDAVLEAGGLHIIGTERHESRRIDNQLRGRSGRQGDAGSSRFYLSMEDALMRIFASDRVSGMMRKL

SaSecA1 [12] = biological target: T3, SaSecA1; conditions: read-out: IC50, ATPase activity, SaSecA1; Table 7

Chain of MsSecA (P71533 whole entry): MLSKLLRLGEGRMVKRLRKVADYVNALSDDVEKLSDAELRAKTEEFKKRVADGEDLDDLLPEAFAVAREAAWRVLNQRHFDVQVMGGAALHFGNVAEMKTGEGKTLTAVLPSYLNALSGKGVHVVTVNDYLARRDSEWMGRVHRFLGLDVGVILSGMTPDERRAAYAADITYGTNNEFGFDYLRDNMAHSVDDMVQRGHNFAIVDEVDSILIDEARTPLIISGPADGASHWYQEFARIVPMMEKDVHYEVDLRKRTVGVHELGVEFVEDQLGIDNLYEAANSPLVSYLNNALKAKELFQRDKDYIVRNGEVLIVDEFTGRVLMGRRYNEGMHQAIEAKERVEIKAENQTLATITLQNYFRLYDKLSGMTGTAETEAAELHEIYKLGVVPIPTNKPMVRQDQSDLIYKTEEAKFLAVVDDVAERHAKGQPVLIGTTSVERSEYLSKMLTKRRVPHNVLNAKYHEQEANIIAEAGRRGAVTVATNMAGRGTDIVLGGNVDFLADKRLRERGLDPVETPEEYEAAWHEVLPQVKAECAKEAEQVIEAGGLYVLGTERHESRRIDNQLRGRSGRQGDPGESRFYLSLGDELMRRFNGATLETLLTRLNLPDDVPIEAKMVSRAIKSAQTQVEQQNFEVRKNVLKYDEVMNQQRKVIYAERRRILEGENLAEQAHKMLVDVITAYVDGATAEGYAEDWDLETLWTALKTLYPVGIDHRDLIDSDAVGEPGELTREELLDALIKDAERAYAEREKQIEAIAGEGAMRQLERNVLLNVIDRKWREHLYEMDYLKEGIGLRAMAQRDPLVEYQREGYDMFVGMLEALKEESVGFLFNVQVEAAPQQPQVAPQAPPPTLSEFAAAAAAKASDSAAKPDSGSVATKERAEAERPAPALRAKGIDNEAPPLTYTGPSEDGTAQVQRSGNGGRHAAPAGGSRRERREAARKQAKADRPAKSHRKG

CCCCCCC1c2ccc(O)cc2Oc2cc(O)ccc21 [SCA-50]
IC50 (MsSecA): 2500 nM
Bactericidal activity, log numbers killed, S. aureus Mu50 (S. aureus Mu50 [1]): more than 3 log numbers
MIC (S. aureus 6538 [2]): 3.7 µg/mL (≈ 12.4 µM)
MIC (S. aureus Mu3): 3.7 µg/mL (≈ 12.4 µM)
IC50 (BsSecA [3]): 2500 nM
Change of MIC on overexpression or deletion of NorA or MepA [4]: did not significantly change
Bactericidal activity, log numbers killed, S. aureus 6538 (S. aureus 6538 [5]): 2 log numbers
IC50 (EcSecA [6]): 60000 nM
IC50 (BsSecA [7]): 33000 nM
IC50 (EcSecA [8]): 2300 nM
MIC (B. anthracis Sterne): 1.7 µg/mL (≈ 5.7 µM)
IC50 (BaSecA1): 1000 nM
IC50 (BsSecA2): 20000 nM
MIC (S. aureus 8325-4): 3.7 µg/mL (≈ 12.4 µM)
IC50 (SaSecA1 [9]): 1100 nM
IC50 (SaSecA1 [9]; IC50, Ion-channel activity, SaSecA1, Table 7): 1100 nM
MIC (S. pyogenes, MGAS5005): 6.25 µM (≈ 1.86 µg/mL)
IC50 (PaSecA): 3000 nM
IC50 (EcSecA [10]): 60000 nM
MIC fold less than the MIC of ampicillin, kanamyin, erythromycin, and rifampicin (S. aureus Mu50 [11]; S. aureus Mu50): 250 fold
MIC (S. aureus Mu50 [11]; MU50, read-out: Bacteriostatic MIC95, S. aureus Mu50, Table 2): 2.4 µg/mL
MIC (S. aureus Mu50 [11]; MU50, read-out: Bacteriostatic effect MIC, S. aureus Mu50, Table 10 and Example 4): 4 µg/mL
MIC (S. aureus Mu50 [11]; MU50, read-out: Bacteriostatic effect, MIC, S. aureus Mu50, Table 8): 3.7 µg/mL
MIC (S. aureus Mu50 [11]; MU50, read-out: MIC95 against drug resistant S. aureus Mu50): 2.4 µM
Bacteriostatic effect MIC, S. aureus Mu50 (S. aureus Mu50 [11]; Table 10 and text of Example 4): 3.7 µg/mL
IC50 (SpSecA): 1900 nM
IC50 (EcSecA N68): 4000 nM
IC50 (SaSecA1 [12]): 20000 nM
